{"source": "patent US6046171A", "about": "“6,11-bridged erythromycin derivatives” (priority 1998, dated 2000)", "type_in_all_cases": "cell-based", "key": {"[1]": {"system": "Enterococcus faecium ATCC 8Q43", "experiment": "in vitro antibacterial MIC, agar dilution", "conditions": "organism code II; 35-37° C., 20 to 24 hours; unit assumed", "experimental": "(§1) Representative compounds of the present invention were assayed in vitro for antibacterial activity as follows: Twelve petri dishes containing successive aqueous dilutions of the test compound mixed with 10 mL of sterilized Brain Heart Infusion (BHI) agar (Difco 0418-01-5) were prepared. Each plate was inoculated with 1:100 (or 1:10 for slow-growing strains, such as Micrococcus and Streptococcus) dilutions of up to 32 different microorganisms, using a Steers replicator block. […] In addition, a control plate, using BHI agar containing no test compound, was prepared and incubated at the beginning and end of each test.\n(§2) An additional plate containing a compound having known susceptibility patterns for the organisms being tested and belonging to the same antibiotic class as the test compound was also prepared and incubated as a further control, as well as to provide test-to-test comparability.\n(§3) After incubation, each plate was visually inspected. The minimum inhibitory concentration (MIC) was defined as the lowest concentration of drug yielding no growth, a slight haze, or sparsely isolated colonies on the inoculum spot as compared to the growth control."}, "[2]": {"system": "Haemophilis Influenzae DILL AMP R", "experiment": "in vitro antibacterial MIC, agar dilution", "conditions": "organism code WW; 35-37° C., 20 to 24 hours; unit assumed", "experimental": "as §1, §2, §3"}, "[3]": {"system": "Streptococcus Pheumoniae 5649", "experiment": "in vitro antibacterial MIC, agar dilution", "conditions": "organism code ZZA; 35-37° C., 20 to 24 hours; unit assumed", "experimental": "as §1, §2, §3"}, "[4]": {"system": "Streptococcus Pheumoniae 5979", "experiment": "in vitro antibacterial MIC, agar dilution", "conditions": "organism code ZZ; 35-37° C., 20 to 24 hours; unit assumed", "experimental": "as §1, §2, §3"}, "[5]": {"system": "Streptococcus bovis A-5169", "experiment": "in vitro antibacterial MIC, agar dilution", "conditions": "organism code JJ; 35-37° C., 20 to 24 hours; unit assumed", "experimental": "as §1, §2, §3"}, "[6]": {"system": "Staphylococcus aureus ATCC 6538P", "experiment": "in vitro antibacterial MIC, agar dilution (BHI agar, Steers replicator)", "conditions": "organism code AA; 35-37° C., 20 to 24 hours; unit assumed", "experimental": "as §1, §2, §3"}, "Escherichia coli SS": {"system": "Escherichia coli SS", "experiment": "in vitro antibacterial MIC, agar dilution", "conditions": "organism code RR; 35-37° C., 20 to 24 hours; unit assumed", "experimental": "as §1, §2, §3"}, "[7]": {"system": "Micrococcus luteus ATCC 4698", "experiment": "in vitro antibacterial MIC, agar dilution", "conditions": "organism code PP; 35-37° C., 20 to 24 hours; unit assumed", "experimental": "as §1, §2, §3"}, "[8]": {"system": "Micrococcus luteus ATCC 9341", "experiment": "in vitro antibacterial MIC, agar dilution", "conditions": "organism code OO; 35-37° C., 20 to 24 hours; unit assumed", "experimental": "as §1, §2, §3"}, "[9]": {"system": "Mycobacterium smegmatis ATCC 114", "experiment": "in vitro antibacterial MIC, agar dilution", "conditions": "organism code UU; 35-37° C., 20 to 24 hours; unit assumed", "experimental": "as §1, §2, §3"}, "[10]": {"system": "Nocardia Asteroides ATCC9970", "experiment": "in vitro antibacterial MIC, agar dilution", "conditions": "organism code VV; 35-37° C., 20 to 24 hours; unit assumed", "experimental": "as §1, §2, §3"}, "[11]": {"system": "Staphylococcus aureus A5177", "experiment": "in vitro antibacterial MIC, agar dilution", "conditions": "organism code BB; 35-37° C., 20 to 24 hours; unit assumed", "experimental": "as §1, §2, §3"}, "[12]": {"system": "Staphylococcus aureus CMX 553", "experiment": "in vitro antibacterial MIC, agar dilution", "conditions": "organism code FF; 35-37° C., 20 to 24 hours; unit assumed", "experimental": "as §1, §2, §3"}, "[13]": {"system": "Staphylococcus aureus CMX 642A", "experiment": "in vitro antibacterial MIC, agar dilution", "conditions": "organism code DD; 35-37° C., 20 to 24 hours; unit assumed", "experimental": "as §1, §2, §3"}, "[14]": {"system": "Staphylococcus aureus NCTC10649M", "experiment": "in vitro antibacterial MIC, agar dilution", "conditions": "organism code EE; 35-37° C., 20 to 24 hours; unit assumed", "experimental": "as §1, §2, §3"}, "[15]": {"system": "Staphylococcus epidermidis 3519", "experiment": "in vitro antibacterial MIC, agar dilution", "conditions": "organism code HH; 35-37° C., 20 to 24 hours; unit assumed", "experimental": "as §1, §2, §3"}, "[16]": {"system": "Streptococcus agalactiae CMX 508", "experiment": "in vitro antibacterial MIC, agar dilution", "conditions": "organism code KK; 35-37° C., 20 to 24 hours; unit assumed", "experimental": "as §1, §2, §3"}, "[17]": {"system": "Streptococcus pyogenes EES61", "experiment": "in vitro antibacterial MIC, agar dilution", "conditions": "organism code LL; 35-37° C., 20 to 24 hours; unit assumed", "experimental": "as §1, §2, §3"}, "[18]": {"system": "Streptococcus pyogenes PIU 2548", "experiment": "in vitro antibacterial MIC, agar dilution", "conditions": "organism code NN; 35-37° C., 20 to 24 hours; unit assumed", "experimental": "as §1, §2, §3"}, "[19]": {"system": "Streptococcus Pheumoniae ATCC6303", "experiment": "in vitro antibacterial MIC, agar dilution", "conditions": "organism code XX; 35-37° C., 20 to 24 hours; unit assumed", "experimental": "as §1, §2, §3"}}, "data": [{"smiles": "CC[C@H]1OC(=O)[C@H](C)[C@@H](O[C@H]2C[C@@](C)(OC)[C@@H](O)[C@H](C)O2)[C@H](C)[C@@H](O[C@@H]2O[C@H](C)C[C@H](N(C)C)[C@H]2O)[C@@]2(C)C[C@@H](C)C(=O)[C@H](C)[C@H]3N(CCCCO2)C(=O)O[C@]13C", "note": "[Example 15]", "values": [{"measurement": "MIC", "setting": "[1]", "value": 0.1, "unit": "µg/mL"}, {"measurement": "MIC", "setting": "[2]", "value": 32, "unit": "µg/mL"}, {"measurement": "MIC", "setting": "[3]", "value": 16, "unit": "µg/mL"}, {"measurement": "MIC", "setting": "[4]", "value": "> 128", "unit": "µg/mL"}, {"measurement": "MIC", "setting": "[5]", "value": 0.05, "unit": "µg/mL"}]}, {"smiles": "CC[C@H]1OC(=O)[C@H](C)C(=O)[C@H](C)[C@@H](O[C@@H]2O[C@H](C)C[C@H](N(C)C)[C@H]2O)[C@@]2(C)C[C@@H](C)C(=O)[C@H](C)[C@H]3N(CC=CCO2)C(=O)O[C@]13C", "note": "[Example 16]", "values": [{"measurement": "MIC", "setting": "[6]", "value": 0.39, "unit": "µg/mL"}, {"measurement": "MIC", "setting": "[1]", "value": 0.2, "unit": "µg/mL"}, {"measurement": "MIC", "setting": "Escherichia coli SS", "value": 0.78, "unit": "µg/mL"}, {"measurement": "MIC", "setting": "[2]", "value": 32, "unit": "µg/mL"}, {"measurement": "MIC", "setting": "[7]", "value": 0.39, "unit": "µg/mL"}, {"measurement": "MIC", "setting": "[8]", "value": 0.2, "unit": "µg/mL"}, {"measurement": "MIC", "setting": "[9]", "value": 6.2, "unit": "µg/mL"}, {"measurement": "MIC", "setting": "[10]", "value": 0.39, "unit": "µg/mL"}, {"measurement": "MIC", "setting": "[11]", "value": 0.39, "unit": "µg/mL"}, {"measurement": "MIC", "setting": "[12]", "value": 0.39, "unit": "µg/mL"}, {"measurement": "MIC", "setting": "[13]", "value": 0.39, "unit": "µg/mL"}, {"measurement": "MIC", "setting": "[14]", "value": 0.39, "unit": "µg/mL"}, {"measurement": "MIC", "setting": "[15]", "value": 0.39, "unit": "µg/mL"}, {"measurement": "MIC", "setting": "[4]", "value": "> 128", "unit": "µg/mL"}, {"measurement": "MIC", "setting": "[16]", "value": 0.2, "unit": "µg/mL"}, {"measurement": "MIC", "setting": "[5]", "value": 0.2, "unit": "µg/mL"}, {"measurement": "MIC", "setting": "[17]", "value": 0.2, "unit": "µg/mL"}, {"measurement": "MIC", "setting": "[18]", "value": 0.39, "unit": "µg/mL"}]}, {"smiles": "CC[C@H]1OC(=O)[C@H](C)[C@@H](O[C@H]2C[C@@](C)(OC)[C@@H](O)[C@H](C)O2)[C@H](C)[C@@H](O[C@@H]2O[C@H](C)C[C@H](N(C)C)[C@H]2O)[C@@]2(C)C[C@@H](C)C(=O)[C@H](C)[C@H]3N(CCC=CCO2)C(=O)O[C@]13C", "note": "[Example 17]", "values": [{"measurement": "MIC", "setting": "[6]", "value": 0.1, "unit": "µg/mL"}, {"measurement": "MIC", "setting": "[1]", "value": 0.05, "unit": "µg/mL"}, {"measurement": "MIC", "setting": "[2]", "value": 8, "unit": "µg/mL"}, {"measurement": "MIC", "setting": "[7]", "value": 0.1, "unit": "µg/mL"}, {"measurement": "MIC", "setting": "[8]", "value": 0.02, "unit": "µg/mL"}, {"measurement": "MIC", "setting": "[9]", "value": 0.2, "unit": "µg/mL"}, {"measurement": "MIC", "setting": "[10]", "value": 0.02, "unit": "µg/mL"}, {"measurement": "MIC", "setting": "[12]", "value": 0.1, "unit": "µg/mL"}, {"measurement": "MIC", "setting": "[13]", "value": 0.2, "unit": "µg/mL"}, {"measurement": "MIC", "setting": "[14]", "value": 0.2, "unit": "µg/mL"}, {"measurement": "MIC", "setting": "[15]", "value": 0.2, "unit": "µg/mL"}, {"measurement": "MIC", "setting": "[3]", "value": 8, "unit": "µg/mL"}, {"measurement": "MIC", "setting": "[4]", "value": "> 128", "unit": "µg/mL"}, {"measurement": "MIC", "setting": "[17]", "value": 0.02, "unit": "µg/mL"}]}, {"smiles": "CC[C@H]1OC(=O)[C@H](C)C(=O)[C@H](C)[C@@H](O[C@@H]2O[C@H](C)C[C@H](N(C)C)[C@H]2O)[C@@]2(C)C[C@@H](C)C(=O)[C@H](C)[C@H]3N(CCC=CCO2)C(=O)O[C@]13C", "note": "[Example 18]", "values": [{"measurement": "MIC", "setting": "[6]", "value": 0.78, "unit": "µg/mL"}, {"measurement": "MIC", "setting": "[1]", "value": 0.39, "unit": "µg/mL"}, {"measurement": "MIC", "setting": "[2]", "value": 128, "unit": "µg/mL"}, {"measurement": "MIC", "setting": "[7]", "value": 0.78, "unit": "µg/mL"}, {"measurement": "MIC", "setting": "[8]", "value": 0.39, "unit": "µg/mL"}, {"measurement": "MIC", "setting": "[10]", "value": 0.78, "unit": "µg/mL"}, {"measurement": "MIC", "setting": "[11]", "value": 0.78, "unit": "µg/mL"}, {"measurement": "MIC", "setting": "[12]", "value": 0.78, "unit": "µg/mL"}, {"measurement": "MIC", "setting": "[13]", "value": 0.78, "unit": "µg/mL"}, {"measurement": "MIC", "setting": "[14]", "value": 0.78, "unit": "µg/mL"}, {"measurement": "MIC", "setting": "[3]", "value": 2, "unit": "µg/mL"}, {"measurement": "MIC", "setting": "[4]", "value": "> 128", "unit": "µg/mL"}, {"measurement": "MIC", "setting": "[19]", "value": 1, "unit": "µg/mL"}, {"measurement": "MIC", "setting": "[16]", "value": 0.2, "unit": "µg/mL"}, {"measurement": "MIC", "setting": "[5]", "value": 0.2, "unit": "µg/mL"}, {"measurement": "MIC", "setting": "[17]", "value": 0.2, "unit": "µg/mL"}]}, {"smiles": "CC[C@H]1OC(=O)[C@H](C)[C@@H](O[C@H]2C[C@@](C)(OC)[C@@H](O)[C@H](C)O2)[C@H](C)[C@@H](O[C@@H]2O[C@H](C)C[C@H](N(C)C)[C@H]2O)[C@@]2(C)C[C@@H](C)C(=O)[C@H](C)[C@H]3N(CC(O)CC=CCO2)C(=O)O[C@]13C", "note": "(stereo partly drawn) [Example 19]", "values": [{"measurement": "MIC", "setting": "[1]", "value": 0.1, "unit": "µg/mL"}, {"measurement": "MIC", "setting": "[2]", "value": 8, "unit": "µg/mL"}, {"measurement": "MIC", "setting": "[8]", "value": 0.05, "unit": "µg/mL"}, {"measurement": "MIC", "setting": "[10]", "value": 0.05, "unit": "µg/mL"}, {"measurement": "MIC", "setting": "[3]", "value": 16, "unit": "µg/mL"}, {"measurement": "MIC", "setting": "[4]", "value": "> 128", "unit": "µg/mL"}, {"measurement": "MIC", "setting": "[16]", "value": 0.05, "unit": "µg/mL"}, {"measurement": "MIC", "setting": "[5]", "value": 0.02, "unit": "µg/mL"}, {"measurement": "MIC", "setting": "[17]", "value": 0.05, "unit": "µg/mL"}, {"measurement": "MIC", "setting": "[18]", "value": 12.5, "unit": "µg/mL"}]}]}
